Measurements reported in patent publication US11787850B2, “Peptidic TGF-beta antagonists” (priority 2015, dated 2023).

Key:
Assay type in all cases: cell-based
[1] = tested on: TGF-β1-induced Smad3-driven (CAGA12-lux) transcriptional activity; test: Luciferase reporter assay in HEK293-(CAGA)12 cells; details: 100 pM TGF-β1, 18 hours; for inhibition of TGF-β1-induced CAGA12-lux activity, peptide pre-treated with DMSO: 0.5% DMSO pre-treatment (FIG. 8); for inhibition of TGF-β1-induced CAGA12-lux activity, peptide in Tris buffer left untreated: no DMSO (FIG. 8)
Protocol: FIGS. 5A and 5B illustrate that some small molecular weight CD109-based peptides (Peptide A, P28, P21 and […]) inhibit TGF-β1-induced Smad3-driven transcriptional activity. […] Cell lysates were analyzed for luciferase activity and data are expressed as mean±standard deviation of relative light units (RLU). […] Under the conditions tested, peptide A, P28, P21 and P16 inhibited TGF-β1-induced transcriptional (CAGA12-lux) activity.
FIG. 6 illustrates that the small molecular weight CD109-based peptide P16 (but not P16-2, P11 or X-4) inhibit TGF-β1-induced Smad3-driven transcriptional activity. HEK293 cells stably transfected with the Smad3-responsive CAGA12-lux luciferase reporter were treated for 18 hours without (−) or with (+) […] TGF-β1 in the presence or absence of 10 nM of P16-2 (16 aa scrambled control), P11 (11 aa sequence), P16 (16 aa), X-4 (11 aa) or Tris-buffer (buffer control) as indicated. Cell lysates were analyzed for luciferase activity and data are expressed as mean±standard deviation of luciferase activity. Results are shown as luciferase activity for the peptides used.
FIG. 8 illustrates that DMSO treatment enhances the TGF-β inhibitory activity of Peptide X but not P21 or P16. HEK293 cells stably transfected with the Smad3-responsive CAGA12-lux luciferase reporter were treated for 18 hours without (−) or with (+) 100 pM TGF-β1 in the presence or absence of Peptide X (PX), P21 or P16. The peptides were previously dissolved in Tris buffer and left untreated or treated with DMSO prior to addition to the cells. Addition of Tris buffer or DMSO alone served as additional controls. Cell lysates were analyzed for luciferase activity and data are expressed as mean±standard deviation of luciferase activity. Results are shown as luciferase activity. […] P16 and P21 inhibited TGF-β1-induced CAGA12-lux activity and these effects were not enhanced by DMSO treatment. […]
FIG. 25 is a graph showing the ability of CD109-based peptides to inhibit TGF-β-induced, Smad3-driven transcriptional activity. HEK293 cells stably transfected with the Smad3-responsive CAGA12-lux luciferase reporter were treated for 18 hours without (−) or with (+) 100 pM TGF-b1 in the presence or absence of 10 nM of P16, P16.2, peptide A, P15, P14, P13, P12, P11, peptide X, P21, or 2% NH4OH buffer (buffer control) as indicated. Cell lysates were analyzed for luciferase activity and data are expressed as mean±standard deviation of luciferase activity.
HEK293 cells stably transfected with the Smad3-responsive CAGA12-lux luciferase reporter construct were incubated with dimeric or monomeric forms of peptide A as indicated and treated with 100 pM TGF-b overnight. Cell lysates were analyzed for luciferase activity. Data are presented as fold-activation compared to TGF-b1 treatment alone (scaled to 1.0). M+D, mixture of monomer and dimer.
Luciferase reporter assays were performed using a HEK293-(CAGA)12 cell line that stably expresses a TGF-β/Smad3-responsive (CAGA)12-luciferase reporter gene [Cash et al. 2013]. HEK293-(CAGA)12 cells were grown in 24-well plates to 70-80% confluency and serum-starved overnight. Cells were washed with PBS and treated with or without TGF-β1 in presence or absence of various CD109-based peptides as indicated in the figure legends. Cells were then washed twice with cold PBS and solubilized in 100 μl of Passive Lysis Buffer (Promega) for 30 min at 4° C. The cell lysates were assayed for luciferase and β-galactosidase activities using commercially available kits (BD Biosciences).
HEK293 cells stably transfected with the Smad3-responsive CAGA12-lux luciferase reporter were treated for 18 hours without (−) or with (+) 100 pM TGF-β1 in the presence or absence of 10 nM (FIG. 5A) or 5 nM (FIG. 5B) of peptide A (Pep A, 161 aa), P28 (28 aa peptide), P21 (21 aa peptide), P16 (16 aa peptide), P16.2 scrambled peptide (16 aa, scrambled P16 sequence) or Tris-buffer (negative control for peptides) as indicated. […]

[2] = tested on: TGF-β-induced fibrotic response in primary human fibroblasts isolated from scleroderma patients; test: Immunoblot of fibrotic markers in scleroderma patient fibroblasts; details: various concentrations of P16, 20 pM TGF-β, 24 hours (FIG. 31)
From the text: (FIG. 30A) Cell lysates were separated by gel electrophoresis, transferred to a membrane, and immunoblotted with antibodies against the indicated proteins. (FIG. 30B) The data shown represent the mean expression levels of 3 different biological replicates calculated by densitometry of fibronectin, PAI-1, and CTGF intensity levels normalized to α-tubulin. Error bars represent the standard deviation of the replicate experiments. A single asterisk designates a t test P value of less than 0.05.
Fibroblasts were starved for 36 hours, then treated with 20 pM TGF-β and various concentrations of P16 as indicated for 24 hours. (FIG. 31A) Cell lysates were separated by gel electrophoresis, transferred to a membrane, and immunoblotted with antibodies against the indicated proteins. (FIG. 31B) The data shown represent the mean expression levels of 3 different biological replicates calculated by densitometry of fibronectin, PAI-1, and CTGF intensity levels normalized to α-tubulin. Error bars represent the standard deviation of the replicate experiments. A single asterisk designates a t test P value of less than 0.05, and a double asterisk indicates a P value of less than 0.01.

[3] = tested on: TGF-b induced cellular invasion of squamous cell carcinoma (A431) cells; test: Matrigel invasion assay, A431 cells; details: 10 nM peptide, 100 pM TGF-b, 24 hrs (FIG. 38)
Protocol: A431 cancer cells (8000 cells) were seeded on a BioCoat™ Matrigel® Invasion Chamber and treated with 10 nM of P16.2 (negative peptide control), P16 or PA in the absence or presence of 100 pM TGF-b, followed by 24 hrs of incubation. Invasive cells (in the lower chambers) were stained by crystal violet dye, photographed and counted. Representative photos (A) and statistical plots of invasion (B) are shown. The data are shown as mean±SD of the number of invasive cells for three independent experiments. **P<0.01 and ***P<0.001 as compared with controls. […] Squamous cell carcinoma (epidermoid A431 and head and neck FaDu) cells were stimulated with 100 pM of TGF-b1, then treated with 10 nM of peptide 16.2, P16, PA or CD109 for 24 hours. Cells were analysed by Flow cytometry and CD133 positive cell population, which represent cancer stem cell population, were quantified.

Sequence | inhibition of TGF-β1-induced CAGA12-lux activity, peptide pre-treated with DMSO [1] | inhibition of TGF-β1-induced CAGA12-lux activity, peptide in Tris buffer left untreated [1] | inhibition of TGF-β-induced fibrotic response, dose-dependent [2] | inhibition of TGF-b induced cellular invasion [3]
ETWIWLDTNMGSRIYQ [Peptide P16] | not enhanced | inhibited | inhibit | significantly inhibit
LGSSPHVRKHFPETWIWLDTNMGSRIYQEFEVTVPDSITS (Peptide X) | inhibited | did not | – | –
